Reference: patent US6852673B2, “Herbicidal pyridine compounds” (BASF Aktiengesellschaft, priority 1998, dated 2005)

What was measured:
Assay type in all cases: in vivo
Galium aparine (GALAP) = assay: Post-emergence herbicidal evaluation, cleaver; details: rated 2 to 4 weeks after treatment
Description: (§1) [table] [table] […] These acetone solutions are diluted with water and the resulting formulations applied at dosage levels equivalent of about 0.03 to 0.4 kg per hectare of test compound per pot. After spraying the plants are placed on greenhouse benches and are cared for in the usual manner, commensurate with conventional greenhouse practices. From 2 to 4 weeks after treatment, the seedling plants are examined and rated according to the rating system provided above. A rating 0 indicates growth as untreated control, a rating 9 indicates death.

[1] = system: Alopecurus myosuroides (ALOMY); assay: Post-emergence herbicidal evaluation, black grass; details: rated 2 to 4 weeks after treatment
Description: as §1

Setaria viridis (SETVI) = assay: Pre-emergence herbicidal evaluation, green foxtail
In short: (§2)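 Seeds mixed with potting soil were planted over about one inch of soil per pot, then sprayed with test compound in aqueous acetone at the equivalent of about 0.0125 to 0.4 kg per hectare. Pots were kept under standard greenhouse care and visually rated 2 to 4 weeks after treatment.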

Glycine max (GLXMA) [2] = assay: Post-emergence herbicidal evaluation, soyabeans; details: rated 2 to 4 weeks after treatment
Description: as §1

Hordeum vulgare (HORVW) = assay: Post-emergence herbicidal evaluation, winter barley; details: rated 2 to 4 weeks after treatment
Description: as §1

[3] = system: Ambrosia artemiisifolia (AMBEL); assay: Post-emergence herbicidal evaluation, ragweed; details: rated 2 to 4 weeks after treatment
Description: as §1

[4] = system: Alopecurus myosuroides (ALOMY); assay: Pre-emergence herbicidal evaluation, black grass
In short: as §2

[5] = system: Abutilon theophrasti (ABUTH); assay: Post-emergence herbicidal evaluation, velvetleaf; details: rated 2 to 4 weeks after treatment
Description: as §1

Lamium purpureum (LAMPU) [6] = assay: Post-emergence herbicidal evaluation, purple deadnettle; details: rated 2 to 4 weeks after treatment
Description: as §1

Zea mays (ZEAMX) = assay: Pre-emergence herbicidal evaluation, maize
Source text: (§3) The pre-emergence herbicidal activity of the compounds of the present invention is exemplified by the following test in which the seeds of a variety of monocotyledonous and dicotyledonous plants are seperately mixed with potting soil and planted on top of approximately one inch of soil in separate pots. After planting, the pots are sprayed with the selected aqueous acetone solution containing test compound in sufficient quantity to provide the equivalent of about 0.0125 to 0.4 kg per hectare of test compound per pot. The treated pots are then placed on greenhouse benches, watered and cared for in accordance with conventional greenhouse procedures. From 2 to 4 weeks after treatment, the tests are terminated and each pot is examined and rated according to the rating system set forth below.

[7] = system: Ambrosia artemiisifolia (AMBEL); assay: Pre-emergence herbicidal evaluation, ragweed
Source text: as §3

Lamium purpureum (LAMPU) [8] = assay: Pre-emergence herbicidal evaluation, purple deadnettle
In short: as §2

Solanum nigrum (SOLNI) = assay: Post-emergence herbicidal evaluation, black nightshade; details: rated 2 to 4 weeks after treatment
Description: as §1

Oryza sativum (ORYSA) [9] = assay: Pre-emergence herbicidal evaluation, rice
Source text: as §3

[10] = system: Ipomoea hederacea (IPOHE); assay: Post-emergence herbicidal evaluation, morning glory; details: rated 2 to 4 weeks after treatment
Description: as §1

Stellaria media (STEME) [11] = assay: Pre-emergence herbicidal evaluation, chickweed
In short: as §2

[12] = system: Abutilon theophrasti (ABUTH); assay: Pre-emergence herbicidal evaluation, velvetleaf
In short: as §2

[13] = system: Ipomoea hederacea (IPOHE); assay: Pre-emergence herbicidal evaluation, morning glory
In short: as §2

Stellaria media (STEME) [14] = assay: Post-emergence herbicidal evaluation, chickweed; details: rated 2 to 4 weeks after treatment
Description: as §1

[15] = system: Echinochloa grus galli (ECHCG); assay: Pre-emergence herbicidal evaluation, barnyard grass
Source text: as §3

[16] = system: Triticum aestivum (TRZAW); assay: Pre-emergence herbicidal evaluation, winter wheat
In short: as §2

[17] = system: Triticum aestivum (TRZAW); assay: Post-emergence herbicidal evaluation, winter wheat; details: rated 2 to 4 weeks after treatment
Description: as §1

[18] = system: Matricaria inodora (MATIN); assay: Post-emergence herbicidal evaluation, mayweed; details: rated 2 to 4 weeks after treatment
Description: as §1

Glycine max (GLXMA) [19] = assay: Pre-emergence herbicidal evaluation, soyabeans
Source text: as §3

Oryza sativum (ORYSA) [20] = assay: Post-emergence herbicidal evaluation, rice; details: rated 2 to 4 weeks after treatment
Description: as §1

[21] = system: Digitaria sanguinalis (DIGSA); assay: Post-emergence herbicidal evaluation, large crabgrass; details: rated 2 to 4 weeks after treatment
Description: as §1

## Cc1cc(OC/C=C/C(F)(F)F)nc(Oc2cc(C(F)(F)F)nn2C)c1 [Example 1, (E)-2-(1-Methyl-3-trifluoromethylpyrazol-5-yloxy)-4-methyl-6-(4,4,4-trifluorobut-2-enyloxy)pyridine]
Galium aparine (GALAP); dose 0.03 kg/ha
  GALAP rating: 7 (7 - Good herbicidal effect)
Galium aparine (GALAP); dose 0.1 kg/ha
  GALAP rating: 8 (8 - Approaching complete kill)
Galium aparine (GALAP); dose 0.4 kg/ha
  GALAP rating: 8 (8 - Approaching complete kill)
[1]; dose 0.03 kg/ha
  ALOMY rating: 6 (6 - Herbicidal effect)
[1]; dose 0.1 kg/ha
  ALOMY rating: 8 (8 - Approaching complete kill)
[1]; dose 0.4 kg/ha
  ALOMY rating: 8 (8 - Approaching complete kill)
Setaria viridis (SETVI)
  activity against Setaria: superior activity
Setaria viridis (SETVI); dose 0.013 kg/ha
  SETVI rating: 9 (9 - Complete kill)
Setaria viridis (SETVI); dose 0.025 kg/ha
  SETVI rating: 9 (9 - Complete kill)
Setaria viridis (SETVI); dose 0.1 kg/ha
  SETVI rating: 9 (9 - Complete kill)
Setaria viridis (SETVI); dose 0.4 kg/ha
  SETVI rating: 9 (9 - Complete kill)
Glycine max (GLXMA) [2]; dose 0.03 kg/ha
  GLXMA rating: 6 (6 - Herbicidal effect)
Glycine max (GLXMA) [2]; dose 0.1 kg/ha
  GLXMA rating: 8 (8 - Approaching complete kill)
Glycine max (GLXMA) [2]; dose 0.4 kg/ha
  GLXMA rating: 8 (8 - Approaching complete kill)
Hordeum vulgare (HORVW); dose 0.03 kg/ha
  HORVW rating: 3 (3 - Moderate effect)
Hordeum vulgare (HORVW); dose 0.1 kg/ha
  HORVW rating: 5 (5 - Definite injury)
Hordeum vulgare (HORVW); dose 0.4 kg/ha
  HORVW rating: 5 (5 - Definite injury)
[3]; dose 0.03 kg/ha
  AMBEL rating: 6 (6 - Herbicidal effect)
[3]; dose 0.1 kg/ha
  AMBEL rating: 7 (7 - Good herbicidal effect)
[3]; dose 0.4 kg/ha
  AMBEL rating: 7 (7 - Good herbicidal effect)
[4]; dose 0.013 kg/ha
  ALOMY rating: 4 (4 - Injury)
[4]; dose 0.025 kg/ha
  ALOMY rating: 6 (6 - Herbicidal effect)
[4]; dose 0.1 kg/ha
  ALOMY rating: 8 (8 - Approaching complete kill)
[4]; dose 0.4 kg/ha
  ALOMY rating: 9 (9 - Complete kill)
[5]; dose 0.03 kg/ha
  ABUTH rating: 8 (8 - Approaching complete kill)
[5]; dose 0.1 kg/ha
  ABUTH rating: 8 (8 - Approaching complete kill)
[5]; dose 0.4 kg/ha
  ABUTH rating: 8 (8 - Approaching complete kill)
Lamium purpureum (LAMPU) [6]; dose 0.03 kg/ha
  LAMPU rating: 8 (8 - Approaching complete kill)
Lamium purpureum (LAMPU) [6]; dose 0.1 kg/ha
  LAMPU rating: 8 (8 - Approaching complete kill)
Lamium purpureum (LAMPU) [6]; dose 0.4 kg/ha
  LAMPU rating: 8 (8 - Approaching complete kill)
Zea mays (ZEAMX); dose 0.013 kg/ha
  ZEAMX rating: 1 (1 - Trace effect)
Zea mays (ZEAMX); dose 0.025 kg/ha
  ZEAMX rating: 2 (2 - Slight effect)
Zea mays (ZEAMX); dose 0.4 kg/ha
  ZEAMX rating: 5 (5 - Definite injury)
[7]; dose 0.013 kg/ha
  AMBEL rating: 5 (5 - Definite injury)
[7]; dose 0.025 kg/ha
  AMBEL rating: 9 (9 - Complete kill)
[7]; dose 0.1 kg/ha
  AMBEL rating: 9 (9 - Complete kill)
[7]; dose 0.4 kg/ha
  AMBEL rating: 9 (9 - Complete kill)
Lamium purpureum (LAMPU) [8]; dose 0.013 kg/ha
  LAMPU rating: 8 (8 - Approaching complete kill)
Lamium purpureum (LAMPU) [8]; dose 0.025 kg/ha
  LAMPU rating: 9 (9 - Complete kill)
Lamium purpureum (LAMPU) [8]; dose 0.1 kg/ha
  LAMPU rating: 9 (9 - Complete kill)
Lamium purpureum (LAMPU) [8]; dose 0.4 kg/ha
  LAMPU rating: 9 (9 - Complete kill)
Solanum nigrum (SOLNI); dose 0.03 kg/ha
  SOLNI rating: 5 (5 - Definite injury)
Solanum nigrum (SOLNI); dose 0.1 kg/ha
  SOLNI rating: 5 (5 - Definite injury)
Solanum nigrum (SOLNI); dose 0.4 kg/ha
  SOLNI rating: 5 (5 - Definite injury)
Oryza sativum (ORYSA) [9]; dose 0.013 kg/ha
  ORYSA rating: 2 (2 - Slight effect)
Oryza sativum (ORYSA) [9]; dose 0.025 kg/ha
  ORYSA rating: 2 (2 - Slight effect)
Oryza sativum (ORYSA) [9]; dose 0.1 kg/ha
  ORYSA rating: 4 (4 - Injury)
Oryza sativum (ORYSA) [9]; dose 0.4 kg/ha
  ORYSA rating: 5 (5 - Definite injury)
[10]; dose 0.03 kg/ha
  IPOHE rating: 9 (9 - Complete kill)
[10]; dose 0.1 kg/ha
  IPOHE rating: 9 (9 - Complete kill)
[10]; dose 0.4 kg/ha
  IPOHE rating: 9 (9 - Complete kill)
Stellaria media (STEME) [11]
  activity against Stellaria: superior activity
Stellaria media (STEME) [11]; dose 0.013 kg/ha
  STEME rating: 5 (5 - Definite injury)
Stellaria media (STEME) [11]; dose 0.025 kg/ha
  STEME rating: 9 (9 - Complete kill)
Stellaria media (STEME) [11]; dose 0.1 kg/ha
  STEME rating: 9 (9 - Complete kill)
Stellaria media (STEME) [11]; dose 0.4 kg/ha
  STEME rating: 9 (9 - Complete kill)
[12]
  activity against Abutilon: superior activity
[12]; dose 0.013 kg/ha
  ABUTH rating: 7 (7 - Good herbicidal effect)
[12]; dose 0.025 kg/ha
  ABUTH rating: 7 (7 - Good herbicidal effect)
[12]; dose 0.1 kg/ha
  ABUTH rating: 8 (8 - Approaching complete kill)
[12]; dose 0.4 kg/ha
  ABUTH rating: 9 (9 - Complete kill)
[13]; dose 0.013 kg/ha
  IPOHE rating: 2 (2 - Slight effect)
[13]; dose 0.025 kg/ha
  IPOHE rating: 5 (5 - Definite injury)
[13]; dose 0.1 kg/ha
  IPOHE rating: 7 (7 - Good herbicidal effect)
[13]; dose 0.4 kg/ha
  IPOHE rating: 9 (9 - Complete kill)
Stellaria media (STEME) [14]; dose 0.03 kg/ha
  STEME rating: 5 (5 - Definite injury)
Stellaria media (STEME) [14]; dose 0.1 kg/ha
  STEME rating: 5 (5 - Definite injury)
Stellaria media (STEME) [14]; dose 0.4 kg/ha
  STEME rating: 6 (6 - Herbicidal effect)
[15]; dose 0.013 kg/ha
  ECHCG rating: 3 (3 - Moderate effect)
[15]; dose 0.025 kg/ha
  ECHCG rating: 5 (5 - Definite injury)
[15]; dose 0.1 kg/ha
  ECHCG rating: 7 (7 - Good herbicidal effect)
[15]; dose 0.4 kg/ha
  ECHCG rating: 9 (9 - Complete kill)
[16]; dose 0.013 kg/ha
  TRZAW rating: 1 (1 - Trace effect)
[16]; dose 0.025 kg/ha
  TRZAW rating: 1 (1 - Trace effect)
[16]; dose 0.1 kg/ha
  TRZAW rating: 3 (3 - Moderate effect)
[16]; dose 0.4 kg/ha
  TRZAW rating: 4 (4 - Injury)
[17]; dose 0.03 kg/ha
  TRZAW rating: 2 (2 - Slight effect)
[17]; dose 0.1 kg/ha
  TRZAW rating: 3 (3 - Moderate effect)
[17]; dose 0.4 kg/ha
  TRZAW rating: 5 (5 - Definite injury)
[18]; dose 0.03 kg/ha
  MATIN rating: 8 (8 - Approaching complete kill)
[18]; dose 0.1 kg/ha
  MATIN rating: 8 (8 - Approaching complete kill)
[18]; dose 0.4 kg/ha
  MATIN rating: 8 (8 - Approaching complete kill)
Glycine max (GLXMA) [19]; dose 0.013 kg/ha
  GLXMA rating: 1 (1 - Trace effect)
Glycine max (GLXMA) [19]; dose 0.025 kg/ha
  GLXMA rating: 1 (1 - Trace effect)
Glycine max (GLXMA) [19]; dose 0.1 kg/ha
  GLXMA rating: 4 (4 - Injury)
Glycine max (GLXMA) [19]; dose 0.4 kg/ha
  GLXMA rating: 5 (5 - Definite injury)
Oryza sativum (ORYSA) [20]; dose 0.03 kg/ha
  ORYSA rating: 2 (2 - Slight effect)
Oryza sativum (ORYSA) [20]; dose 0.1 kg/ha
  ORYSA rating: 3 (3 - Moderate effect)
Oryza sativum (ORYSA) [20]; dose 0.4 kg/ha
  ORYSA rating: 5 (5 - Definite injury)
[21]; dose 0.03 kg/ha
  DIGSA rating: 7 (7 - Good herbicidal effect)
[21]; dose 0.1 kg/ha
  DIGSA rating: 8 (8 - Approaching complete kill)
[21]; dose 0.4 kg/ha
  DIGSA rating: 8 (8 - Approaching complete kill)
